From US4317768A, “Dihydropyridine derivatives as stabilizers for vinyl chloride polymers” (priority 1977, dated 1982)

Assays:
[1] = Polarographic study of the oxidation potential; assay type: physicochemical; details: acetonitrile, 0.1 M lithium perchlorate, vitrous carbon electrode, calomel reference
Source text: By a polarographic study of their oxidation potential, compared to well-known antioxidants such as 2,6-diterbutyl-4-methyl-phenol, 2-terbutyl-4-methoxy-phenol, 4-methoxy-phenol and hydroquinone.
Reference electrode: Calomel electrode containing a saturated solution of anhydrous lithium perchlorate as bridge liquid.
Working electrode: Vitrous carbon rotating electrode (2,500 r.p.m.)
Counter-electrode: Platinum electrode
Acetonitrile containing less than 0.1% of water and presenting no polarographic waves between -2.5 V and +2.5 V.
Anhydrous lithium perchlorate containing less than 1% of water.
A 0.1 M solution of lithium perchlorate in acetonitrile, treated and preserved on a 4 A molecular sieve.
Amplitude of exploration: 0 to 2 V
Speed of exploration: 10 mV/second
Sensitivity: 1.25 μA to 50 μA
Mean concentration: about 0.3×10^-3 mol/liter
Between each measurement, the vitrous carbon electrode and the platinum electrode were carefully cleaned with Joseph paper.

[2] = Antioxidant power on a polyvinyl chloride resin, GARDNER method, 185° C.
Description: (§1) By direct comparison, on a polyvinyl chloride resin, of the antioxidant power of Compound 1 of the invention and that of an antioxidant known as one of the most valuable and frequently used in polyvinyl chloride, namely 2,6-diterbutyl-4-methyl-phenol.
(§2) The antioxidant power of Compound 1 was compared to that of 2,6-diterbutyl-4-methyl-phenol (Compound 2) by using the following resin:
The study was carried out according to the GARDNER method, the samples being removed from an oven at 185° C. every 10 minutes over a period of 80 minutes.
The signs + and - have the same meanings as in the previous table and > 2 means that the coloration lies between 2 and 2+.

[3] = Antioxidant power on a polyvinyl chloride resin, Metrastat oven, 210° C.
Description: as §1, §2
The same trials were carried out in a Metrastat oven at 210° C.

[4] = Antioxidant power on a polyvinyl chloride resin, GARDNER method, 185° C.; remark: listed apart in the source

Cc1cc(C(C)(C)C)c(O)c(C(C)(C)C)c1 [Compound Z, 2,6-diterbutyl-4-methyl-phenol, reference compound]
Oxidation potential [1]: 1.11 ± 0.02 volts
coloration, GARDNER scale ([2]; 0.05 part, 0 min): > 1
coloration, GARDNER scale ([2]; 0.05 part, 40 min): > 6
coloration, GARDNER scale ([2]; 0.05 part, 50 min): 7
coloration, GARDNER scale ([2]; 0.05 part, 60 min): 7
coloration, GARDNER scale ([2]; 0.05 part, 70 min): 8
coloration, GARDNER scale ([2]; 0.05 part, 80 min): Burnt
coloration, GARDNER scale ([2]; 0.1 part, 0 min): > 1
coloration, GARDNER scale ([2]; 0.1 part, 30 min): > 5
coloration, GARDNER scale ([2]; 0.1 part, 40 min): > 6
coloration, GARDNER scale ([2]; 0.1 part, 50 min): 7
coloration, GARDNER scale ([2]; 0.1 part, 60 min): 7
coloration, GARDNER scale ([2]; 0.1 part, 70 min): 8
coloration, GARDNER scale ([2]; 0.2 part, 0 min): > 1
coloration, GARDNER scale ([2]; 0.2 part, 40 min): > 6
coloration, GARDNER scale ([2]; 0.2 part, 50 min): 7
coloration, GARDNER scale ([2]; 0.2 part, 60 min): 7
coloration, GARDNER scale ([2]; 0.2 part, 70 min): 8
coloration, GARDNER scale ([2]; 0.3 part, 20 min): > 2
coloration, GARDNER scale ([2]; 0.3 part, 30 min): 6
coloration, GARDNER scale ([2]; 0.3 part, 40 min): 7
coloration, GARDNER scale ([2]; 0.3 part, 50 min): 8
coloration, GARDNER scale ([2]; 0.3 part, 60 min): 8
coloration, GARDNER scale ([2]; 0.4 part, 20 min): 3
coloration, GARDNER scale ([2]; 0.4 part, 30 min): > 6
coloration, GARDNER scale ([2]; 0.4 part, 50 min): 9
coloration, GARDNER scale ([2]; 0.4 part, 60 min): 9
coloration, GARDNER scale ([2]; 0.4 part, 70 min): 9
coloration, GARDNER scale ([2]; 0.5 part, 20 min): 3
coloration, GARDNER scale ([2]; 0.5 part, 30 min): > 6
coloration, GARDNER scale ([2]; 0.5 part, 40 min): > 7
coloration, GARDNER scale ([2]; 0.5 part, 60 min): 8
coloration, GARDNER scale ([2]; 0.5 part, 70 min): 8
coloration, GARDNER scale ([2]; 1.0 part, 20 min): > 3
coloration, GARDNER scale ([2]; 1.0 part, 30 min): 8
coloration, GARDNER scale ([2]; 1.0 part, 40 min): 8
coloration, GARDNER scale ([2]; 1.0 part, 50 min): 8
coloration, GARDNER scale ([2]; 1.0 part, 60 min): 9
coloration, GARDNER scale ([2]; 1.0 part, 70 min): 9
time of burning (B) ([3]; 0.05 part): 38 '
coloration, GARDNER scale ([3]; 0.05 part, 10 to 20 min): 2
coloration, GARDNER scale ([3]; 0.05 part, 30 to 35 min): 10
coloration, GARDNER scale ([3]; 0.05 part, 35 to 40 min): > 10
time of burning (B) ([3]; 0.1 part): 39 '
coloration, GARDNER scale ([3]; 0.1 part, 10 to 20 min): 2
coloration, GARDNER scale ([3]; 0.1 part, 30 to 35 min): 11
coloration, GARDNER scale ([3]; 0.1 part, 35 to 40 min): > 11
time of burning (B) ([3]; 0.2 part): 39 '
coloration, GARDNER scale ([3]; 0.2 part, 10 to 20 min): 2
coloration, GARDNER scale ([3]; 0.2 part, 30 to 35 min): 11
coloration, GARDNER scale ([3]; 0.2 part, 35 to 40 min): > 11
time of burning (B) ([3]; 0.3 part): 39 '
coloration, GARDNER scale ([3]; 0.3 part, 0 to 10 min): < 1
coloration, GARDNER scale ([3]; 0.3 part, 25 to 30 min): 3
coloration, GARDNER scale ([3]; 0.3 part, 30 to 35 min): 9
coloration, GARDNER scale ([3]; 0.3 part, 35 to 40 min): < 10
time of burning (B) ([3]; 0.4 part): 38 '
coloration, GARDNER scale ([3]; 0.4 part, 10 to 20 min): 2
coloration, GARDNER scale ([3]; 0.4 part, 20 to 25 min): 3
coloration, GARDNER scale ([3]; 0.4 part, 30 to 35 min): 10
coloration, GARDNER scale ([3]; 0.4 part, 35 to 40 min): > 10
time of burning (B) ([3]; 0.5 part): 38 '
coloration, GARDNER scale ([3]; 0.5 part, 10 to 20 min): 2
coloration, GARDNER scale ([3]; 0.5 part, 20 to 25 min): 3
time of burning (B) ([3]; 1.0 part): 38 '
coloration, GARDNER scale ([3]; 1.0 part, 10 to 20 min): 2
coloration, GARDNER scale ([3]; 1.0 part, 25 to 30 min): 5
coloration, GARDNER scale ([3]; 1.0 part, 30 to 35 min): 11
coloration, GARDNER scale ([3]; 1.0 part, 35 to 40 min): > 11
colour of sheets, in words ([3]; from the time zero): pink-coloured sheets
antioxidant power, Compound 1 vs Compound Z, in words [4]: no concentration in Compound Z gives the best results obtained with Compound 1
